# Patent US12564609B2, “Hematopoietic stem cell engraftment with a combination of agents” (The Board of Trustees of the Leland Stanford Junior …, priority 2020, dated 2026)
# Tested on: donor HSC engraftment
# Experiment: Allogeneic (minor MHC-mismatched) transplantation, donor chimerism in peripheral blood
# Format: in vivo, BALB.B mice
# Protocol: A. Schematic of allogeneic transplantation protocol. BALB.B mice (H-2^b, Thy1.2, CD45.2) were recipients for B6 donors (H-2b, Thy1.1, CD45.1); ACK2 was injected 10 days prior transplantation, AZA was administered days −5 through −1 in dose 2.5 or 5 mg/kg/d, anti-CD4/CD8 were injected in dose 100 μg at days −2, −1 and at the day of transplant (day 0); recipients received 15×10^6 WBM cells or 5×10^4 LSK at d0; chimerism analysis was assessed by flow cytometry using CD45 marker to distinguish between donor and recipient total, myeloid (Gr1^+Mac1^+), B-cells (CD19^+CD3^−) and T-cells (CD19^−CD3^+). B. Multilineage donor-derived chimerism after conditioning with ACK2, AZA 2.5 mg/kg, AZA 5 mg/kg or their combination and transplantation of 15×10^6WBM cells. Chimerism levels from peripheral blood are shown at 4, 14 and 26 weeks post-HCT. Data represent mean±SD (n=4 per group). C. Multilineage donor-derived chimerism in peripheral blood at 4, 14 and 26 weeks following conditioning with single agent ACK2, single agent AZA 5 mg/kg/d or their combination and transplantation of 5×10^4 Lin^− Sca1^+c-Kit^+ cells (LSK). Data represent mean±SD (n=3-5 per group) between the donor and recipient.
# Mice. […]
# Bone marrow cell preparation and HSC isolation for transplantation experiments. […] Cells were filtered through 70-μm filter, lysed in ACK lysis buffer and counted on Invitrogen Countess. […]
compound,measurement,setting,value
"Nc1ncn([C@@H]2O[C@H](CO)[C@@H](O)[C@H]2O)c(=O)n1 [AZA, 5-Azacytidine]",donor engraftment,"AZA 5 mg/kg/d, anti-CD4/CD8, 15×10^6 allogeneic WBM cells",successful donor engraftment was achieved
same,total donor chimerism over time,"AZA alone group, 15×10^6 allogeneic WBM cells",noted to decrease
